This is an account of results in ChEMBL document CHEMBL1287786, “Synthesis, antimicrobial and antioxidant evaluation of quinolines and bis(indolyl)methanes” (2010).

Common to all, as to assay type: functional
Experiment [1] deals with Staphylococcus aureus. Briefly: Antibacterial activity against Staphylococcus aureus ATCC 25923 at 1000 ug/ml after 24 hrs by cup plate method. Particulars: ATCC 25923, 24 h, read-out: IZ.
Experiment [2] has as its system Escherichia coli. Briefly: Antibacterial activity against Escherichia coli ATCC 25922 at 1000 ug/ml after 24 hrs by cup plate method. Particulars: ATCC 25922, 24 h, read-out: IZ.
Experiment [3] has as its system Candida albicans. Briefly: Antifungal activity against Candida albicans ATCC 10231 at 1000 ug/ml after 24 hrs by cup plate method. Particulars: ATCC 10231, 24 h, read-out: IZ.
Experiment [4] deals with Radical scavenging activity. Briefly: Antioxidant activity assessed as DPPH radical scavenging activity at 50 ug by spectrophotometry relative to control. (Loss of DPPH colour is used to gauge radical scavenging.)
Experiment [5] relates to Radical scavenging activity. Briefly: Antioxidant activity assessed as DPPH radical scavenging activity at 500 ug by spectrophotometry relative to control.
Experiment [6] concerns Radical scavenging activity. Briefly: Antioxidant activity assessed as DPPH radical scavenging activity at 1000 ug by spectrophotometry relative to control.
Experiment [7] in a line: Antioxidant activity assessed as hydrogen peroxide radical scavenging activity by spectrophotometry relative to control. More on the design: concentration or dose not given beside the values.
A short description of experiment [8]: Antioxidant activity assessed as hydrogen peroxide radical scavenging activity after 10 mins by spectrophotometry relative to control. More on the design: concentration or dose not given beside the values.
A short description of experiment [9]: Antioxidant activity assessed as hydrogen peroxide radical scavenging activity after 20 mins by spectrophotometry relative to control. More on the design: concentration or dose not given beside the values.
Experiment [10] in a line: Antioxidant activity assessed as hydrogen peroxide radical scavenging activity after 30 mins by spectrophotometry relative to control. More on the design: concentration or dose not given beside the values.
Experiment [11] is described as follows: Antioxidant activity assessed as hydrogen peroxide radical scavenging activity after 40 mins by spectrophotometry relative to control. More on the design: concentration or dose not given beside the values.

`Cc1ccc(-c2cc(-c3ccccc3)c3ccccc3n2)cc1`: the values for the zone of inhibition at 1000 µg/mL in [1], in experiment [2] and in [3] were 24 mm, 17 mm and 19 mm, respectively.
In the case of `CCCCc1cc(-c2ccccc2)c2ccccc2n1`, the zone of inhibition at 1000 µg/mL in experiment [1] was found to be 20 mm; in [2], 19 mm; in [3] it was 15 mm.
Consider `O=C1O[C@H]([C@@H](O)CO)C(O)=C1O`, for which the Activity worked out at 96% in experiment [4], 97% in experiment [5] and 99% in experiment [6].
Consider `CCCCCc1ccc(-c2cc(C)c3ccccc3n2)cc1`, for which the zone of inhibition at 1000 µg/mL stood at 21 mm in experiment [1], 18 mm in [2] and 18 mm in [3].
Consider `Cc1ccc2nc(-c3cccc(Br)c3)cc(-c3ccccc3)c2c1`, for which the zone of inhibition at 1000 µg/mL in experiment [1] came to 24 mm; in experiment [2], 22 mm; in experiment [3], 21 mm.
As for `Clc1ccc2nc(-c3ccccc3)cc(-c3ccccc3)c2c1`, the zone of inhibition at 1000 µg/mL in [1] turned out to be 21 mm; in [2] it was 18 mm; in experiment [3], 16 mm.
As to `CCn1c2ccccc2c2cc(C(c3c(-c4ccccc4)[nH]c4ccccc34)c3c(-c4ccccc4)[nH]c4ccccc34)ccc21`, the figures for the zone of inhibition at 1000 µg/mL in [1], in [2] and in experiment [3] were 24 mm, 23 mm and 24 mm, respectively. Moreover, the Activity worked out at 15% in experiment [4]; 42% in [5]; 73% in [6]; 85% in experiment [7]; 80% in experiment [8]; 82% in [9]. For the same molecule, the Activity in [10] was determined as 75%; in experiment [11], 65%.
Consider `COc1cc(Br)c(C(c2c(-c3ccccc3)[nH]c3ccccc23)c2c(-c3ccccc3)[nH]c3ccccc23)cc1OC`, for which the zone of inhibition at 1000 µg/mL amounted to 12 mm in experiment [1], 14 mm in experiment [2] and 16 mm in [3]. Further, the Activity in experiment [4] was 21%; in experiment [5] it was 52%; in experiment [6] it was 69%; in [7], 86%; in [8], 85%; in experiment [9] it was 74%. The Activity in experiment [10] came to 72%; in experiment [11] it was 69%.
For the molecule `Clc1nc2ccccc2cc1C(c1c(-c2ccccc2)[nH]c2ccccc12)c1c(-c2ccccc2)[nH]c2ccccc12`, the results for the zone of inhibition at 1000 µg/mL in [1], in [2] and in experiment [3] were 18 mm, 15 mm and 18 mm, respectively. In addition, the Activity in experiment [4] is 2%; in experiment [5] it was 12%; in [6], 35%; in [7], 84%; in experiment [8] it was 83%; in experiment [9] it was 80%. Moreover, the Activity in experiment [10] worked out at 73%; in [11], 68%.
As for `Cn1c(C(c2c(-c3ccccc3)[nH]c3ccccc23)c2c(-c3ccccc3)[nH]c3ccccc23)cc2ccccc21`, the results for the zone of inhibition at 1000 µg/mL in experiment [1], in [2] and in experiment [3] were 13 mm, 16 mm and 14 mm, respectively. In addition, the Activity turned out to be 19% in [4]; 63% in experiment [5]; 76% in experiment [6]; 43% in experiment [7]; 35% in experiment [8]; 21% in experiment [9]. In addition, the Activity in experiment [10] turned out to be 20%; in [11], 16%.
As to `Cc1cc(-c2ccccc2)nc2ccccc12`, the values for the zone of inhibition at 1000 µg/mL in [1], in [2] and in experiment [3] were 14 mm, 20 mm and 16 mm, respectively.
Regarding `c1ccc(-c2ccc(C(c3c(-c4ccccc4)[nH]c4ccccc34)c3c(-c4ccccc4)[nH]c4ccccc34)cc2)cc1`, the zone of inhibition at 1000 µg/mL was 26 mm in experiment [1], 26 mm in experiment [2] and 25 mm in experiment [3]. In addition, the Activity in experiment [4] was 22%; in experiment [5], 55%; in [6] it was 75%; in experiment [7] it was 87%; in experiment [8] it was 83%; in experiment [9] it was 75%. In addition, the Activity in experiment [10] was found to be 70%; in [11], 59%.
Turning to `COc1cc(C(c2c(-c3ccccc3)[nH]c3ccccc23)c2c(-c3ccccc3)[nH]c3ccccc23)cc(Br)c1O`, the results for the zone of inhibition at 1000 µg/mL in [1], in experiment [2] and in experiment [3] were 22 mm, 24 mm and 26 mm, respectively. Besides, the Activity in [4] is 27%; in experiment [5], 64%; in [6], 70%; in experiment [7], 82%; in [8], 81%; in experiment [9], 74%. Besides, the Activity was 71% in experiment [10] and 65% in experiment [11].
`c1ccc(-c2[nH]c3ccccc3c2C(c2ccc3c(c2)-c2ccccc2C3)c2c(-c3ccccc3)[nH]c3ccccc23)cc1`: the zone of inhibition at 1000 µg/mL in [1] amounted to 24 mm; in experiment [2] it was 18 mm; in [3] it was 18 mm. For the same molecule, the Activity was 19% in experiment [4]; 66% in [5]; 85% in experiment [6]; 88% in experiment [7]; 85% in experiment [8]; 76% in experiment [9]. The Activity in experiment [10] worked out at 73%; in [11], 70%.
For `Brc1cccc(-c2cc(-c3ccccc3)c3ccccc3n2)c1`, the zone of inhibition at 1000 µg/mL came out at 14 mm in experiment [1], 12 mm in experiment [2] and 10 mm in [3].
As for `c1ccc(-c2[nH]c3ccccc3c2C(c2cccc3ccccc23)c2c(-c3ccccc3)[nH]c3ccccc23)cc1`, the results for the zone of inhibition at 1000 µg/mL in [1], in [2] and in experiment [3] were 23 mm, 16 mm and 10 mm, respectively. In addition, the Activity in experiment [4] came out at 25%; in experiment [5] it was 58%; in experiment [6], 76%; in experiment [7], 93%; in [8] it was 84%; in experiment [9], 82%. Moreover, the Activity in [10] amounted to 77%; in experiment [11], 71%.
For the molecule `c1ccc(-c2cc(-c3ccccc3)c3ccccc3n2)cc1`, the zone of inhibition at 1000 µg/mL in [1] is 18 mm; in experiment [2] it was 17 mm; in experiment [3], 13 mm.
The matching figures for `COc1cccc(-c2cc(-c3ccccc3)c3ccccc3n2)c1`: 21 mm, 23 mm and 14 mm.
Take `Clc1ccc(-c2nn(-c3ccccc3)cc2C(c2c(-c3ccccc3)[nH]c3ccccc23)c2c(-c3ccccc3)[nH]c3ccccc23)cc1`: the zone of inhibition at 1000 µg/mL in [1] worked out at 19 mm; in experiment [2] it was 15 mm; in experiment [3], 12 mm. Moreover, the Activity in [4] was determined as 21%; in [5] it was 65%; in experiment [6], 87%; in [7] it was 83%; in [8], 82%; in [9], 81%. Also, the Activity in experiment [10] turned out to be 80%; in [11], 79%.
For `Brc1cc2c(cc1C(c1c(-c3ccccc3)[nH]c3ccccc13)c1c(-c3ccccc3)[nH]c3ccccc13)OCO2`, the figures for the zone of inhibition at 1000 µg/mL in experiment [1], in experiment [2] and in experiment [3] were 25 mm, 23 mm and 24 mm, respectively. Further, the Activity was 10% in [4]; 23% in experiment [5]; 42% in experiment [6]; 57% in experiment [7]; 43% in experiment [8]; 39% in experiment [9]. In addition, the figures for the Activity in experiment [10] and in [11] were 30% and 21%, respectively.
Regarding `Cc1cc(C(C)(C)C)c(O)c(C(C)(C)C)c1`, the Activity was determined as 92% in experiment [7]; 86% in experiment [8]; 83% in experiment [9]; 82% in experiment [10]; 80% in experiment [11].
As to `C[C@@H]1[C@H](O)[C@@H](C)/C=C/C=C/C=C/C=C/C=C/C=C/C=C/[C@H](O[C@@H]2O[C@H](C)[C@@H](O)[C@H](N)[C@@H]2O)C[C@@H]2O[C@](O)(C[C@@H](O)C[C@@H](O)[C@H](O)CC[C@@H](O)C[C@@H](O)CC(=O)O[C@H]1C)C[C@H](O)[C@H]2C(=O)O` [AMPHOTERICIN B], the zone of inhibition at 1000 µg/mL in experiment [3] is 20 mm.
With `c1ccc(-c2cc(-c3ccccn3)nc3ccccc23)cc1`, the values for the zone of inhibition at 1000 µg/mL in experiment [1], in experiment [2] and in experiment [3] were 23 mm, 18 mm and 18 mm, respectively.
With `Cc1ccc(-c2cc(-c3ccccc3)c3cc(Cl)ccc3n2)cc1`, the zone of inhibition at 1000 µg/mL was 22 mm in experiment [1], 22 mm in experiment [2] and 23 mm in experiment [3].
As for `Cc1ccccc1-c1cc(-c2ccccc2)c2ccccc2n1`, the zone of inhibition at 1000 µg/mL in experiment [1] stood at 15 mm; in experiment [2], 18 mm; in experiment [3], 15 mm.
